Target: Protein cereblon/Eukaryotic peptide chain release factor GTP-binding subunit ERF3A (Homo sapiens, UniProt P15170+Q96SW2)
Assay: PROTAC activity at CRBN/GSPT1 in human U-937 cells assessed as degradation of GSPT1 measured after 6 hrs by Western blot analysis
Type: cell-based

Protein cereblon/Eukaryotic peptide chain release factor GTP-binding subunit ERF3A, sequence (Q96SW2 whole entry): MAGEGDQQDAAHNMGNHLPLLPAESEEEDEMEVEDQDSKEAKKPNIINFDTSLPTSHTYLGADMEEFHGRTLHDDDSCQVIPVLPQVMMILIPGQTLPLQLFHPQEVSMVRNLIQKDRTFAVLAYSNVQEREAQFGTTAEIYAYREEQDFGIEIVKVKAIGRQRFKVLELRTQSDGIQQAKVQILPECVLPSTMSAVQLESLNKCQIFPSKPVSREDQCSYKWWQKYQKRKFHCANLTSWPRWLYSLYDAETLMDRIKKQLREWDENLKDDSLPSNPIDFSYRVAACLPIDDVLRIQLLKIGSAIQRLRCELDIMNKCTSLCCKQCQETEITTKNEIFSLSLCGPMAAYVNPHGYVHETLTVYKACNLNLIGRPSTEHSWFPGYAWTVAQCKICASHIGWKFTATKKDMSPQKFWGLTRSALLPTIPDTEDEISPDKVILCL
Protein cereblon/Eukaryotic peptide chain release factor GTP-binding subunit ERF3A, sequence (P15170 whole entry): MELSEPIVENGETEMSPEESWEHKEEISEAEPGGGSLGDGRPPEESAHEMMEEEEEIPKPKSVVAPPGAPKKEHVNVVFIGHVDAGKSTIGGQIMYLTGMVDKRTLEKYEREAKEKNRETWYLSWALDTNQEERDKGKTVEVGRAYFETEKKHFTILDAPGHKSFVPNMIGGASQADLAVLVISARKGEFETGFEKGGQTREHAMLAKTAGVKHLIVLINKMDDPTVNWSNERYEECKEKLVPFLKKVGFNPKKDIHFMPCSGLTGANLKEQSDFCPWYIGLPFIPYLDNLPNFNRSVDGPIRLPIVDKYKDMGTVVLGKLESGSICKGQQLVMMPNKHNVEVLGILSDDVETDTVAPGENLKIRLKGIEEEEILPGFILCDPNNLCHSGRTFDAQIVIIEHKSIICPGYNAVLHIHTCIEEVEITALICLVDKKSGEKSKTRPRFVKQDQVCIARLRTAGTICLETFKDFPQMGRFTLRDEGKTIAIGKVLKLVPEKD

EC50 [nM]	Structure (SMILES)
2200	Cc1c(Cl)cc(NC(=O)CCc2ccc3c(c2)C(=O)N(C2CCC(=O)NC2=O)C3)cc1CN1CCN(C)CC1 (centres undefined)
> 10000	Cc1ccc(NC(=O)CC(C)c2ccc3c(c2)C(=O)N(C2CCC(=O)NC2=O)C3)cc1Cl (centres undefined)
> 10000	Cc1ccc(NC(=O)CNc2ccc3c(c2)C(=O)N(C2CCC(=O)NC2=O)C3)cc1Cl (centres undefined)
176	Cc1c(Cl)cc(NC(=O)CCc2ccc3c(c2)C(=O)N(C2CCC(=O)NC2=O)C3)cc1CN1CCC(N2CCOCC2)CC1 (centres undefined)
> 10000	Cc1ccc(NC(=O)COc2ccc3c(c2)C(=O)N(C2CCC(=O)NC2=O)C3)cc1Cl (centres undefined)
143	Cc1cc(NC(=O)CCc2ccc3c(c2)C(=O)N(C2CCC(=O)NC2=O)C3)ccc1Cl (centres undefined)
18	Cc1ccc(NC(=O)CCc2ccc3c(c2)C(=O)N(C2CCC(=O)NC2=O)C3)cc1Cl (centres undefined)
86	Cc1c(Cl)cc(NC(=O)CCc2ccc3c(c2)C(=O)N(C2CCC(=O)NC2=O)C3)cc1CN1CC2(COC2)C1 (centres undefined)
208	Cc1c(Cl)cc(NC(=O)CCc2ccc3c(c2)C(=O)N(C2CCC(=O)NC2=O)C3)cc1CN1CC(N2CCOCC2)C1 (centres undefined)

Reference: ChEMBL document CHEMBL5620419, “Discovery of new Lenalidomide derivatives as potent and selective GSPT1 degraders” (Eur J Med Chem, 2023)
